This note sets out measurements from ChEMBL document CHEMBL1201862, “PubChem BioAssay data set” (2004).

Test in all cases: growth of human tumour cells (NCI), 48 h
Assay [1] deals with SW-620.
Assay [2] relates to U-251.
Assay [3] concerns K562.
Assay [4] concerns NCI-H23.
The subject of assay [5] is NCI-H460.
Assay [6] deals with SK-MEL-28.
In assay [7] the test system is HCT-116.
The subject of assay [8] is CCRF-CEM.
Assay [9] has as its system SNB-19.
The subject of assay [10] is A498.
For assay [11], the system named is OVCAR-8.
The test system of assay [12] is HOP-62.
Assay [13] deals with SK-OV-3.
Assay [14] relates to EKVX.
Assay [15] concerns HL-60.
Assay [16] concerns SK-MEL-2.
For assay [17], the system named is COLO 205.

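Five concentrations, 48 hours, 96-well plates. Here, GI50 denotes the concentration required for 50% inhibition of growth.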 The source made the active and inactive calls. No stated cut-off is given here; in the data, active = GI50 up to about 1.1 µM and inactive = higher. Some results are limits rather than exact numbers.

Regarding `CCN(CC)CCC(=O)N1CCc2c([nH]c3ccccc23)C1c1cccnc1` (stereo not given), the GI50 in [1], in assay [2], in [3], in [4], in assay [5] and in assay [6] was > 100 µM (inactive) each time. Besides, the GI50 in assay [7], in [8], in assay [9], in assay [10], in assay [11] and in assay [12] was > 100 µM (inactive) each time. Besides, the GI50 in [13], in assay [14] and in assay [15] was > 100 µM (inactive) throughout.
On to `CCOc1ccc(NC(=O)/C(=C/c2ccccc2)C(C)=O)cc1`, for which the GI50 in assay [1] is 13.2 µM (inactive); in [16], 13.2 µM (inactive); in [2] it was 12.6 µM (inactive); in assay [3], 5.27 µM (inactive); in assay [4], 10.9 µM (inactive); in assay [5], 17.4 µM (inactive). Moreover, the GI50 in [6] is 12.9 µM (inactive); in [7] it was 4.94 µM (inactive); in [8], 2.87 µM (inactive); in assay [9], 12.1 µM (inactive); in assay [10], 18.1 µM (inactive); in assay [11], 12.1 µM (inactive). The GI50 in assay [12] is 16.3 µM (inactive); in [13] it was 24.6 µM (inactive); in [14] it was 17.8 µM (inactive); in [15], 2.32 µM (inactive); in [17], 17.2 µM (inactive).
In the case of `C[N+](C)(C)CC(=O)N/N=C(/C(=O)Nc1ccc(Br)cc1)C1C(=O)NC(=O)NC1=O`, the GI50 in assay [1], in assay [16], in [2], in assay [3], in assay [4] and in assay [5] was > 100 µM (inactive) in each case. The GI50 in assay [6], in assay [7], in assay [8], in [9], in assay [10] and in assay [12] was > 100 µM (inactive) throughout. Also, the GI50 in assay [13], in assay [14], in [15] and in assay [17] was > 100 µM (inactive) throughout.
Regarding `CC[C@]1(O)C(=O)OCc2c1cc1n(c2=O)Cc2cc3c(N)cccc3nc2-1`, the GI50 in assay [1], in assay [16], in assay [2], in assay [3], in [4] and in assay [5] was > 100 µM (inactive) each time. Besides, the GI50 in assay [6], in assay [7], in [8], in assay [9], in assay [10] and in [11] was > 100 µM (inactive) in each case. The GI50 in [12], in assay [13], in [14], in [15] and in assay [17] was > 100 µM (inactive) in each case.
`C[N+](C)(C)CCc1ccccc1`: the GI50 in assay [1], in assay [16], in assay [2], in assay [3], in assay [4] and in assay [5] was > 100 µM (inactive) in each case. The GI50 in [6], in assay [7], in [8], in [9], in assay [10] and in assay [11] was > 100 µM (inactive) in each case. The GI50 in assay [12], in [13], in assay [14], in assay [15] and in assay [17] was > 100 µM (inactive) each time.
With `COc1cc2c(cc1C)[n+]([O-])c(C)c(C(=O)C/C(=N/NC(=O)C[N+](C)(C)C)C(=O)Nc1cccc(Cl)c1C)[n+]2[O-]`, the GI50 in assay [1], in assay [16], in assay [2], in assay [3], in assay [4] and in assay [5] was > 100 µM (inactive) each time. Further, the GI50 in assay [6] is > 100 µM (inactive); in assay [7], > 100 µM (inactive); in assay [8] it was 49.9 µM (inactive); in assay [9], > 100 µM (inactive); in assay [10], > 100 µM (inactive); in assay [11], > 100 µM (inactive). For the same molecule, the GI50 in assay [12], in [14], in [15] and in [17] was > 100 µM (inactive) throughout.
In the case of `NNC(=O)CC(=O)Nc1ccccc1F`, the GI50 in assay [1], in [2], in [3], in assay [4], in [5] and in assay [6] was > 100 µM (inactive) throughout. In addition, the GI50 in assay [7], in assay [8], in assay [9], in assay [10], in [11] and in assay [12] was > 100 µM (inactive) in each case. In addition, the GI50 in assay [13], in assay [14], in assay [15] and in [17] was > 100 µM (inactive) in each case.
Take `C(=C\c1c2oc(-c3ccccc3)cc(-c3ccccc3)c-2c2ccccc12)/C=C1\c2ccccc2-c2c(-c3ccccc3)cc(-c3ccccc3)[o+]c21.[O-][Cl+3]([O-])([O-])[O-]`: the GI50 in assay [1], in assay [16], in assay [2], in assay [3], in [4] and in [5] was > 100 µM (inactive) throughout. For the same molecule, the GI50 in assay [6], in assay [7], in assay [8], in assay [9], in assay [10] and in assay [11] was > 100 µM (inactive) throughout. For the same molecule, the GI50 in [12], in [13], in [14], in assay [15] and in [17] was > 100 µM (inactive) throughout.
Consider `CCOC(=O)c1ccc(/N=C/c2ccc(N(CCC#N)S(=O)(=O)c3ccccc3)cc2C)cc1`, for which the GI50 was 76.6 µM (inactive) in [1]; 33.5 µM (inactive) in [16]; 97.1 µM (inactive) in assay [2]; 9.79 µM (inactive) in assay [3]; > 100 µM (inactive) in assay [4]; 61.2 µM (inactive) in assay [6]. Also, the GI50 was 36.9 µM (inactive) in assay [7]; 36.6 µM (inactive) in assay [8]; > 100 µM (inactive) in assay [9]; > 100 µM (inactive) in assay [10]; > 100 µM (inactive) in assay [11]; 31 µM (inactive) in [12]. Further, the GI50 was 76.9 µM (inactive) in assay [13], 52.8 µM (inactive) in assay [14], 19.4 µM (inactive) in [15] and 20.4 µM (inactive) in assay [17].
As to `CC(C)N1CC2CC(CN(C(=O)c3ccc(Cl)cc3)C2)C1`, the GI50 in assay [1], in assay [16], in assay [2], in assay [3], in assay [4] and in assay [5] was > 100 µM (inactive) in each case. Also, the GI50 in [6], in assay [8], in assay [9], in assay [10], in assay [11] and in [12] was > 100 µM (inactive) throughout. Further, the GI50 in [13], in assay [14], in assay [15] and in assay [17] was > 100 µM (inactive) in each case.
Consider `CN(CCN1C(=O)c2cc([N+](=O)[O-])cc3cc([N+](=O)[O-])cc(c23)C1=O)CCN1C(=O)c2cc([N+](=O)[O-])cc3cc([N+](=O)[O-])cc(c23)C1=O`, for which the GI50 in assay [1] was 0.0741 µM (active); in assay [16] it was 0.764 µM (active); in assay [2], 0.375 µM (active); in [3] it was 0.23 µM (active); in assay [4], 1.74 µM (inactive); in [5] it was 0.387 µM (active). Besides, the GI50 in [6] was 0.798 µM (active); in assay [7] it was 0.153 µM (active); in [8] it was 0.0524 µM (active); in [10], 12.8 µM (inactive); in assay [11] it was 0.267 µM (active); in assay [12], 2.65 µM (inactive). Also, the GI50 in assay [13] is 2.31 µM (inactive); in assay [14], 4.26 µM (inactive); in [15], 0.234 µM (active); in assay [17] it was 0.393 µM (active).
As to `Cc1ccc(S(=O)(=O)c2ccc(C)cc2[N+](=O)[O-])cc1`, the GI50 in assay [1] is > 100 µM (inactive); in assay [16], > 100 µM (inactive); in assay [2], > 100 µM (inactive); in assay [3], 50.5 µM (inactive); in [4], 53.7 µM (inactive); in assay [5], > 100 µM (inactive). Further, the GI50 was > 100 µM (inactive) in assay [6]; 71.4 µM (inactive) in assay [7]; > 100 µM (inactive) in assay [8]; > 100 µM (inactive) in assay [9]; 19.4 µM (inactive) in assay [10]; > 100 µM (inactive) in assay [12]. Moreover, the GI50 in assay [13] is > 100 µM (inactive); in assay [14], > 100 µM (inactive); in assay [15] it was 29.3 µM (inactive); in assay [17], > 100 µM (inactive).
